“And” between values parts separate entries of the source, which are not always exact repeats. Identical values can stand only once.
What was measured:
nontransgenic mice = test: Pilot Morris water maze #1 (spatial learning and memory); settings: for Distance / Latency: Fig 2A; for Crossing Frequency: Fig 2C
nontransgenic (NTG) mice = test: Morris water maze #2, nontransgenic (NTG) mice; settings: for %Target Quadrant / Crossing Frequency / Latency to Target / Training Latency: ISRIB 2.5mpk in DMSO/PEG
[1] = 72-hour probe trial (Fig 2C), 0.25mpk, individual mice
[2] = ISRIB 0.1mpk, Trial 1, individual mice
[3] = ISRIB 0.1mpk, Trial 2, individual mice
[4] = ISRIB 0.1mpk, Trial 3, individual mice
[5] = ISRIB 0.1mpk, Trial 4, individual mice
[6] = ISRIB 0.25mpk, Trial 1, individual mice
[7] = ISRIB 0.25mpk, Trial 2, individual mice
[8] = ISRIB 0.25mpk, Trial 3, individual mice
[9] = Fig 4E, NTG mice, individual mice
[10] = Fig 4F, NTG mice, individual animals

## O=C(COc1ccc(Cl)cc1)NC1CCC(NC(=O)COc2ccc(Cl)cc2)CC1 (stereo not shown) [ISRIB]
Nontransgenic mice; 72-hour probe trial (Fig 2C), 0.1mpk, individual mice
  Latency to Target: 47.2473 and 25.4922 and 4.571 and 12.4458 and 24.0908 and 40.0734 and 23.29 and 28.6286 and 42.042 and 38.3383 and 5.506 and 17.9513
Nontransgenic mice; [1]
  %Target Quadrant (percent time spent in target quadrant): 45.4798% and 27.066% and 23.0727% and 47.7537% and 35.4409% and 31.5031% and 40.9318% and 46.4781% and 25.5685% and 36.6057% and 27.898% and 43.3167% and 22.3516% and 17.7482% and 21.6861%
  Latency to Target: 9.843 and 17.3507 and 7.741 and 43.2432 and 4.972 and 20.1201 and 23.7237 and 4.638 and 6.24 and 11.4448 and 27.027 and 19.4194
Nontransgenic mice; 72-hour probe trial, one-way ANOVA
  latency to target and crossing frequency vs vehicle: no significant improvement
Nontransgenic mice; [2]
  Distance: 2362.83 and 2250.62 and 2496.09 and 1947.39 and 1168.96 and 2236.97 and 2411.54 and 2035.59 and 1921.1 and 2456.98 and 2337.83 and 2068.76 and 2366.51 and 2250.12 and 2342.92
  Latency: 120.12 and 115.716 and 120.153 (11×) and 70.7374 and 112.312
Nontransgenic mice; [3]
  Distance: 2488.72 and 412.271 and 2629.01 and 582.153 and 2113.12 and 2245.93 and 2084.31 and 208.443 and 322.031 and 2551.61 and 1958.47 and 2254.18 and 2157.45 and 1870.02 and 1903.66
  Latency: 120.153 (7×) and 20.1868 and 53.2199 and 101.501 and 119.653 and 16.016 and 18.5852 and 101.535 and 100.467
Nontransgenic mice; [4]
  Distance: 96.0203 and 1493.55 and 655.096 and 2193.26 and 428.034 and 2346.49 and 668.274 and 682.153 and 2384.94 and 600.87 and 1974.12 and 1289.33 and 2210.56 and 216.348 and 165.502
  Latency: 7.307 and 72.6059 and 29.1291 and 120.153 (6×) and 25.7925 and 43.31 and 33.8338 and 32.666 and 11.8785 and 10.01
Nontransgenic mice; [5]
  Distance: 1924.82 and 804.911 and 451.376 and 688.986 and 824.577 and 691.966 and 1226.74 and 1849.83 and 378.165 and 840.629
  Latency: 96.0961 and 35.7357 and 20.6873 and 46.6467 and 38.0714 and 35.4354 and 120.153 and 97.4308 and 17.4174 and 44.2776
Nontransgenic mice; ISRIB 0.1mpk, individual mice
  Crossing Frequency: 1 and 2 and 5 and 0 and 4 and 3
Nontransgenic mice; [6]
  Distance: 2065.19 and 2495.79 and 2100.99 and 2299.57 and 1083.65 and 2015.54 and 1762.54 and 1784.58 and 1973.36 and 2419.28 and 2296.21 and 1746.93 and 2593.71 and 2297.94 and 2156.55
  Latency: 120.153 (10×) and 56.5566 and 93.994 and 110.677 and 97.7644 and 92.3257
Nontransgenic mice; [7]
  Distance: 2252.57 and 966.538 and 2215.71 and 2563.77 and 445.101 and 2147.24 and 1156.33 and 1018.37 and 2302.03 and 2270.34 and 1964.61 and 2179.88 and 2576.82 and 1685.38 and 1279.26
  Latency: 119.753 and 49.4828 and 119.686 and 120.153 (6×) and 23.4902 and 55.5555 and 58.6587 and 114.581 and 80.8141 and 66.8669
Nontransgenic mice; [8]
  Distance: 2747.59 and 190.327 and 1538.1 and 2351.74 and 241.5 and 531.856 and 1005.53 and 471.756 and 1003.73 and 604.685 and 1640.73 and 351.494 and 2299.54 and 202.419 and 1735.08
  Latency: 120.153 (5×) and 12.6126 and 98.365 and 13.9807 and 31.4314 and 77.5108 and 25.1251 and 47.047 and 26.9937 and 17.4174 and 12.5459
Nontransgenic mice; ISRIB 0.25mpk, individual mice
  Crossing Frequency: 6 and 2 and 0 and 3 and 1 and 7
Nontransgenic mice; MWM #1 training, 0.1 and 0.25 mpk
  learning rates to find the hidden platform (latency or distance) vs vehicle: No differences in learning rates
Nontransgenic (NTG) mice; 0.25 mpk in 1% DMSO/saline, vs vehicle
  MWM training latency NTG Trial*ISRIB (linear mixed effects regression model): −0.1 sec/day
Nontransgenic (NTG) mice; [9]
  %Target Quadrant: 53.4979% and 33.8116% and 21.5771% and 31.9208% and 40.8186% and 33.2555% and 14.7926% and 38.7054% and 50.3837% and 29.8076% and 34.8126% and 37.4819%
  Crossing Frequency: 7 and 3 and 0 and 4 and 2 and 1 and 6
  Latency to Target: 12.9463 and 11.6116 and 60 and 7.741 and 3.4034 and 4.6046 and 17.8846 and 5.806 and 58.7921 and 9.409 and 18.6186
Nontransgenic (NTG) mice; Fig 4F, NTG mice, individual mice
  %Target Quadrant: 51.4959% and 27.4719% and 32.1433% and 20.02% and 23.9128% and 54.4989% and 37.8156% and 28.8066% and 47.6032% and 24.024% and 39.8176%
Nontransgenic (NTG) mice; [10]
  Crossing Frequency: 7 and 3 and 5 and 2 and 1
  Latency to Target: 10.7441 and 4.6046 and 20.3537 and 7.474 and 3.27 and 20.1535 and 5.6056 and 21.1545 and 23.6904 and 21.4214 and 20.287 and 19.2859
Nontransgenic (NTG) mice; NTG mice, Trial 8, individual mice (Fig 4A-D)
  Training Latency: 2.936 and 11.4781 and 15.9493 and 10.5439 and 6.139 and 7.074 and 4.8048 and 33.3667 and 6.74 and 48.7821 and 3.871 and 75.7424
Nontransgenic (NTG) mice; NTG mice, Trial 9, individual mice (Fig 4A-D)
  Training Latency: 45.6457 and 6.273 and 8.742 and 30.297 and 12.6793 and 5.739 and 57.0571 and 4.8048 and 11.8118 and 7.341 and 70.1368 and 5.138
Nontransgenic (NTG) mice; NTG mice, Trial 10, individual mice (Fig 4A-D)
  Training Latency: 3.737 and 4.004 and 28.295 and 62.9963 and 3.67 and 21.6216 and 5.939 and 22.6226 and 8.542 and 19.4861 and 60 and 4.271
Nontransgenic (NTG) mice; NTG mice, Trial 11, individual mice (Fig 4A-D)
  Training Latency: 31.7651 and 42.1088 and 14.281 and 24.7581 and 7.074 and 6.54 and 24.024 and 52.7861 and 11.6116 and 20.7541 and 39.5062 and 3.6036
Nontransgenic (NTG) mice; NTG mice, 0.25 or 2.5 mpk
  learning during the training trials: did not observe an improvement in learning
Nontransgenic (NTG) mice; NTG mice, 72 hour probe trial, 0.25 or 2.5 mpk
  spatial memory treatment effects: did not observe significantly positive treatment effects

Reference: article PMC5075699
